Reference: PubChem BioAssay (NCI)
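Step 1: Grow cells in 96-well plates. Step 2: Expose to compound for 48 hours at 5 concentrations. Step 3: Interpolate endpoints linearly; if unreached, use highest concentration. GI50: concentration for 50% inhibition of growth. Definition used: TGI = concentration required for complete inhibition of growth.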

Key:
Test in all cases: DTP human tumour cell line panel, 48 h; in the data active means GI50 below about 0.43 µM; inactive means the rest
[1] = tested on: SK-OV-3 ovarian
[2] = tested on: SF-295 CNS
[3] = tested on: MOLT-4 leukemia
[4] = tested on: OVCAR-3 ovarian
[5] = tested on: NCI-H522 lung
[6] = tested on: DMS 273 small cell lung
[7] = tested on: SW-620 colon
[8] = tested on: A549 NSCLC
[9] = tested on: SNB-75 CNS
[10] = tested on: HOP-62 NSCLC
[11] = tested on: LXFL 529 NSCLC
[12] = tested on: HT29 colon
[13] = tested on: UACC-257 melanoma
[14] = tested on: M19-MEL melanoma
[15] = tested on: SN12C renal
[16] = tested on: SR leukemia
[17] = tested on: HL-60(TB) leukemia
[18] = tested on: KM12 colon
[19] = tested on: CCRF-CEM leukemia
[20] = tested on: UACC-62 melanoma
[21] = tested on: 786-0 renal
[22] = tested on: NCI-H226 lung
[23] = tested on: KM20L2 colon
[24] = tested on: K-562 leukemia
[25] = tested on: RPMI-8226 leukemia
[26] = tested on: SK-MEL-28 melanoma
[27] = tested on: U251 CNS
[28] = tested on: M14 melanoma
[29] = tested on: RXF-631 renal
[30] = tested on: DMS 114 small cell lung
[31] = tested on: LOX IMVI melanoma
[32] = tested on: CAKI-1 renal
[33] = tested on: HCC-2998 colon
[34] = tested on: DLD-1 colon
[35] = tested on: A498 renal
[36] = tested on: RXF 393 renal
[37] = tested on: SK-MEL-2 melanoma
[38] = tested on: HOP-18 NSCLC
[39] = tested on: TK-10 renal
[40] = tested on: HOP-92 NSCLC
[41] = tested on: NCI-H460 lung
[42] = tested on: HCT-116 colon
[43] = tested on: UO-31 renal
[44] = tested on: MALME-3M melanoma
[45] = tested on: SNB-78 CNS
[46] = tested on: IGROV1 ovarian
[47] = tested on: OVCAR-8 ovarian
[48] = tested on: SK-MEL-5 melanoma
[49] = tested on: COLO 205 colon
[50] = tested on: SF-539 CNS
[51] = tested on: SNB-19 CNS
[52] = tested on: OVCAR-4 ovarian
[53] = tested on: ACHN renal
[54] = tested on: HCT-15 colon
[55] = tested on: OVCAR-5 ovarian
[56] = tested on: SF-268 CNS
[57] = tested on: NCI-H23 lung
[58] = tested on: EKVX NSCLC
[59] = tested on: XF 498 CNS

COc1ccc2[nH]c3c(C)c4c(c(C)c3c2c1)CN(C)CC4
33.8 µM: TGI [30]
31.3 µM: TGI [38]
20.2 µM: TGI [12]
31.4 µM: TGI [33]
34.8 µM: TGI [20] | TGI [23] | TGI [52]
33.4 µM: TGI [5]
36.2 µM: TGI [36]
31.2 µM: TGI [49]
48.5 µM: TGI [51]
74.1 µM: TGI [3]
> 100 µM: TGI [19]
36.1 µM: TGI [11]
27.8 µM: TGI [21]
83.8 µM: TGI [16]
27.1 µM: TGI [18]
31.5 µM: TGI [37]
93.7 µM: TGI [34]
36.4 µM: TGI [9]
29.8 µM: TGI [50]
4.65 µM: TGI [17]
42.9 µM: TGI [39]
32.9 µM: TGI [2]
32.4 µM: TGI [10]
31.6 µM: TGI [14]
27.6 µM: TGI [31]
58.4 µM: TGI [29]
48.3 µM: TGI [56]
15.5 µM: TGI [7]
30.3 µM: TGI [4]
32 µM: TGI [27] | TGI [48]
30.5 µM: TGI [28]
35.3 µM: TGI [54]
32.7 µM: TGI [13]
35.9 µM: TGI [46]
32.2 µM: TGI [35] | TGI [40]
34.1 µM: TGI [32]
93.3 µM: TGI [25]
11.8 µM: TGI [42]
54.2 µM: TGI [55]
80.6 µM: TGI [45]
25.8 µM: TGI [24] | TGI [47]
33.9 µM: TGI [8]
30.8 µM: TGI [22]
27.5 µM: TGI [26]
24.8 µM: TGI [41]
30 µM: TGI [1] | TGI [43]
30.6 µM: TGI [15]
35 µM: TGI [44] | TGI [53]
29.6 µM: TGI [6]

COC1C(CN[N+](=O)CC2OC3OC(C)(C)OC3C2OC)OC2OC(C)(C)OC21 (stereo not drawn)
> 100 µM: TGI [1] | TGI [2] | TGI [3] | TGI [4] | TGI [6] | TGI [7] | TGI [8] | TGI [9] | TGI [10] | TGI [12] | TGI [13] | TGI [14] | TGI [15] | TGI [17] | TGI [18] | TGI [19] | TGI [20] | TGI [21] | TGI [22] | TGI [26] | TGI [27] | TGI [28] | TGI [29] | TGI [30] | TGI [31] | TGI [32] | TGI [33] | TGI [34] | TGI [35] | TGI [36] | TGI [37] | TGI [38] | TGI [39] | TGI [57] | TGI [40] | TGI [41] | TGI [42] | TGI [43] | TGI [44] | TGI [45] | TGI [46] | TGI [47] | TGI [48] | TGI [58] | TGI [49] | TGI [50] | TGI [51] | TGI [52] | TGI [53] | TGI [54] | TGI [55] | TGI [56]

COC(=O)C1=C(C(=O)OC)C2C=CC1C1C(Cl)=C(Cl)C21 (stereo not drawn)
> 100 µM: TGI [1] | TGI [2] | TGI [3] | TGI [4] | TGI [5] | TGI [6] | TGI [7] | TGI [8] | TGI [9] | TGI [10] | TGI [11] | TGI [12] | TGI [13] | TGI [14] | TGI [15] | TGI [18] | TGI [19] | TGI [20] | TGI [21] | TGI [23] | TGI [24] | TGI [25] | TGI [26] | TGI [27] | TGI [28] | TGI [29] | TGI [30] | TGI [31] | TGI [32] | TGI [33] | TGI [34] | TGI [36] | TGI [37] | TGI [38] | TGI [39] | TGI [57] | TGI [40] | TGI [41] | TGI [43] | TGI [44] | TGI [46] | TGI [47] | TGI [48] | TGI [58] | TGI [49] | TGI [50] | TGI [52] | TGI [53] | TGI [54] | TGI [55] | TGI [56]

O=C1OCc2c1cc1ccc(O)c(OC3OC(CO)C(O)C(O)C3O)c1c2-c1ccc2c(c1)OCO2 (stereo not drawn)
59.9 µM: TGI [5]
> 100 µM: TGI [1] | TGI [2] | TGI [3] | TGI [4] | TGI [6] | TGI [7] | TGI [8] | TGI [9] | TGI [10] | TGI [11] | TGI [12] | TGI [13] | TGI [14] | TGI [15] | TGI [18] | TGI [19] | TGI [20] | TGI [21] | TGI [22] | TGI [23] | TGI [24] | TGI [25] | TGI [26] | TGI [27] | TGI [28] | TGI [29] | TGI [30] | TGI [31] | TGI [32] | TGI [59] | TGI [33] | TGI [35] | TGI [36] | TGI [37] | TGI [39] | TGI [57] | TGI [41] | TGI [42] | TGI [43] | TGI [44] | TGI [45] | TGI [46] | TGI [47] | TGI [58] | TGI [49] | TGI [50] | TGI [51] | TGI [52] | TGI [53] | TGI [54] | TGI [55] | TGI [56]
inactive: GI50 [3] 34.3 µM | GI50 [4] 64.6 µM | GI50 [5] 22.6 µM | GI50 [9] 55.2 µM | GI50 [13] 37.9 µM | GI50 [14] 38.2 µM | GI50 [18] 23.4 µM | GI50 [19] 34.9 µM | GI50 [22] 48.4 µM | GI50 [24] 39.5 µM | GI50 [25] 34.6 µM | GI50 [33] 38.2 µM | GI50 [37] 33.5 µM | GI50 [57] 47.5 µM | GI50 [42] 39.7 µM | GI50 [43] 27.2 µM | GI50 [48] 26.2 µM | GI50 [51] 36 µM | GI50 [52] 56.2 µM | GI50 [56] 57.1 µM
74.9 µM: TGI [48]
